Results on four molecules are retold here after patent US8933075B2, “Compounds useful as antiviral agents, compositions, and methods of use” (priority 2010, dated 2015).

Assay [1] concerns influenza viruses that have HA subtype H3. To be noted: cited from earlier work.
Assay [2] has as its system influenza viruses that have HA subtypes H1 and H2. The conditions noted are these: cited from earlier work.
In assay [3] the test system is pseudoHIV particles. The experiment in a line: HIV pseudovirus assay in X4 cells (luciferase). It is filed as cell-based, HIV-1. The conditions noted are these: Human immunodeficiency virus 1, read-out: HIV EC50. The protocol:
A plasmid coding the HIV-1 genome, deleting the envelope protein gene and with a luciferase gene inserted, and a plasmid coding the envelope protein gene were cotransfected into 293T cells. After 48 hr, the supernatant containing pseudoHlV particles was collected for transducing assay. In 96 well plates, X4 cells were plated and incubated till confluent. The pseudoHlV particles were incubated with various concentrations of inhibitor compounds for one hour in room temperature. The particles were then used for tranducing X4 cells. The transduced X4 cells were lysed after 48 hr and the luciferase activity was measured in a luminometer.

Assay [4] concerns A/Udorn/72 (H3N2) virus. Put plainly: Plaque assay in MDCK cells: EC50 by reduction of plaque number. It counts as cell-based, influenza virus. To be noted: MDCK.
Assay [5] relates to influenza virus. To be noted: cited from earlier work.
Assay [6] deals with H3 viruses. The conditions noted are these: cited from earlier work.
Assay [7] deals with H1 and H2 viruses. To be noted: cited from earlier work.

By EC50 is commonly meant the concentration that produces a half-maximal response. Regarding `C[C@@H]1CCC[C@@H]2C[C@@H](NC(=O)c3cc(Cl)c(N)cc3O)CCN21` [BMY-27709], in assay [1], the “activity against H3” value is “not H3”. The EC50 in assay [2] is 6 to 8 µM. As to `COc1cc(OC)cc(-c2cc(CCCn3nnc(CO)c3CO)c(/C=C3\SC(=S)N(C4C5CC6CC(C5)CC4C6)C3=O)o2)c1` (stereo not shown) [Compound 201, (Z)-3-(adamantan-2-yl)-5-((3-(3-(4′,5′-bis(hydroxymethyl)-1H-1′,2′,3′-triazol-1-yl)propyl)-5-(3′,5′-dimetho-xyphenyl)furan-2-yl)methylene)-2-thioxothiazolidin-4-one], the EC50 in assay [3] and in assay [4] was less than 100 nM throughout. In the case of `OC(CCN1CCCCC1)(c1ccccc1)C1C2CC3C(C2)C31` (stereo not shown) [Triperiden], the “concentration inhibiting influenza virus replication” value in assay [5] is 20 µg/mL. With Stachyflin, the “activity against H3 viruses” value in assay [6] is “not H3”. Further, the EC50 result in assay [7] is “μM range”.
